The target in test [1] is T1, full-length human 11βHSD1 (Homo sapiens, UniProt P28845).
T1 construct: made in house; host or cells: HEK-293 transient transfectants; clarified lysate, not purified
Description: Enzymatic assay of 11βHSD1 (Scintillation Proximity Assay, clarified lysates of HEK-293 transfectants). The format is biochemical. The note with it: SPA, 25 nM 3H-cortisone, 400 μM NADPH, 37° C. for one hour. On the procedure: Enzymatic Assay of 11βHSD1
All in vitro assays were performed with clarified lysates as the source of 11βHSD1 activity. HEK-293 transient transfectants expressing an epitope-tagged version of full-length human 11βHSD1 were harvested by centrifugation. Roughly 2×10^7 cells were resuspended in 40 mL of lysis buffer (25 mM Tris-HCl, pH 7.5, 0.1 M NaCl, 1 mM MgCl2 and 250 mM sucrose) and lysed in a microfluidizer. Lysates were clarified by centrifugation and the supernatants were aliquoted and frozen.
Inhibition of 11βHSD1 by test compounds was assessed in vitro by a Scintillation Proximity Assay (SPA). Dry test compounds were dissolved at 5 mM in DMSO. These were diluted in DMSO to suitable concentrations for the SPA assay. 0.8 μL of 2-fold serial dilutions of compounds were dotted on 384 well plates in DMSO such that 3 logs of compound concentration were covered. 20 μL of clarified lysate was added to each well. Reactions were initiated by addition of 20 μL of substrate-cofactor mix in assay buffer (25 mM Tris-HCl, pH 7.5, 0.1 M NaCl, 1 mM MgCl2) to final concentrations of 400 μM NADPH, 25 nM ^3H-cortisone and 0.007% Triton X-100. Plates were incubated at 37° C. for one hour. […] Quenched plates were incubated for a minimum of 30 minutes at RT prior to reading on a Topcount scintillation counter. […]

For a further test, the target named is T2, 11βHSD1 in the eye (Homo sapiens, UniProt P28845).
T2 construct: 11βHSD1 has been localized to NPE cells; host or cells: eye of healthy volunteers, in vivo
The note with it: healthy volunteers, after seven days of carbenoxolone treatment; cited from earlier work.

Some results are limits rather than exact numbers.

T2 sequence (P28845 whole entry): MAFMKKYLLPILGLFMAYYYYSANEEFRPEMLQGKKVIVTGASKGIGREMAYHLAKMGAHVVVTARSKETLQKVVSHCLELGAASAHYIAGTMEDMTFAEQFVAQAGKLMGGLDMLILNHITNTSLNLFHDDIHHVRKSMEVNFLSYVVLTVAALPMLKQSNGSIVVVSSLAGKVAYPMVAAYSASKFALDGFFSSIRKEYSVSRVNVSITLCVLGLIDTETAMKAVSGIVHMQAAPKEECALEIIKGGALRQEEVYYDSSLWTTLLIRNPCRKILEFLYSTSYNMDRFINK
T1 sequence (P28845 whole entry): as above

For the molecule `O=C1OC2(CCN(C(=O)C(O)c3ccc(Br)cc3F)C2)c2ccccc21` (centres unmarked) [Example 1, 1′-[(4-Bromo-2-fluorophenyl)(hydroxy)acetyl]-3H-spiro[2-benzofuran-1,3′-pyrrolidin]-3-one], in test [1], the half-maximal inhibitory concentration (IC50) (commonly the midpoint of a concentration-inhibition curve) is less than 1000 nM. In the case of `CC1(C)[C@@H](OC(=O)CCC(=O)O)CC[C@]2(C)[C@H]3C(=O)C=C4[C@@H]5C[C@@](C)(C(=O)O)CC[C@]5(C)CC[C@@]4(C)[C@]3(C)CC[C@@H]12` [carbenoxolone], the “IOP was reduced by” value on 11βHSD1 in the eye is given as 18%.

The values are drawn from patent publication US20070213311A1, “Modulators of 11-beta hydroxyl steroid dehydrogenase type 1, pharmaceutical compositions thereof, and methods of using the same” (priority 2006, published 2007).
